TGI data for 17 molecules are collected here from PubChem BioAssay (NCI).

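Values below derive from 48-hour exposures of cells grown in 96-well plates, with endpoints linearly interpolated between the two concentrations bracketing the appropriate inhibition level. TGI marks complete inhibition of growth.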

Assay in all cases: NCI anticancer screen, dose series, 48 h
For test [1], the system named is SR leukemia.
Test [2] concerns PC-3 prostate.
The test system of test [3] is OVCAR-5 ovarian.
The subject of test [4] is OVCAR-4 ovarian.
Test [5] has as its system MDA-MB-231 breast.
Test [6] deals with MCF7 breast.
Test [7] concerns SN12C renal.
The subject of test [8] is HCT-15 colon.
Test [9] has as its system MOLT-4 leukemia.
Test [10] has as its system SW-620 colon.
Test [11] has as its system SK-MEL-2 melanoma.
Test [12] concerns UACC-62 melanoma.
Test [13] deals with CAKI-1 renal.
Test [14] concerns RXF 393 renal.
The subject of test [15] is SNB-75 CNS.
For test [16], the system named is MDA-MB-435.
For test [17], the system named is HCC-2998 colon.
The test system of test [18] is OVCAR-3 ovarian.

On to `Nc1ncn2c(n1)nc1ccccc12`, for which the TGI in [1], in [2], in test [3], in [4], in test [5] and in test [6] was over 100 µM throughout. In addition, the TGI in [7], in test [8], in test [9], in test [10], in test [11] and in test [12] was over 100 µM each time. The TGI is over 100 µM in [13], over 100 µM in test [14], 78.9 µM in test [15] and over 100 µM in test [16].
Regarding `CC1(C)CCC(C)(C)C1C(=O)NC(O)C(=O)O` (centres undefined), the TGI in test [1], in [17], in test [2], in test [3], in test [5] and in [6] was over 100 µM each time. The TGI in test [7], in [8], in [9], in test [10], in [11] and in [12] was over 100 µM each time. In addition, the TGI in [15] and in [16] was over 100 µM throughout.
With `O=c1ccn(C2OC(CO)C(O)C2F)c(=O)n1Cc1ccccc1` (centres undefined), the TGI in [1], in [2], in [3], in [5], in test [6] and in test [7] was over 100 µM in each case. Further, the TGI in test [8], in test [9], in test [10], in [12], in test [18] and in [13] was over 100 µM each time. In addition, the TGI in [14], in test [15] and in [16] was over 100 µM each time.
In the case of `CCOC(=O)c1nc2ccc(C(F)(F)F)cc2nc1Nc1ccc(Cl)c(Cl)c1`, the TGI in test [1], in [17], in test [2], in [3], in test [5] and in test [6] was over 100 µM throughout. Moreover, the TGI in test [7], in test [8], in test [9], in test [10], in test [12] and in test [18] was over 100 µM in each case. Further, the TGI in test [13], in test [14], in test [15] and in test [16] was over 100 µM in each case.
For `COc1cc2c(c(O)c1OC)CC1CCC(=O)N1C2c1cccc2ccccc12` (centres undefined), the TGI in test [1] is over 100 µM; in [17], 33.3 µM; in test [2], 43.7 µM; in [3], 38.2 µM; in test [5], 33 µM; in test [6] it was over 100 µM. Also, the TGI in test [7] was 34.2 µM; in [8] it was 82.9 µM; in test [9] it was over 100 µM; in [10] it was 73 µM; in [11], 34.9 µM; in [12], 30.9 µM. The TGI in [18] is 44.6 µM; in test [13], 47.1 µM; in test [15], over 100 µM; in test [16], 40.4 µM.
As for `C=C1CC(Cn2ccc(=O)[nH]c2=O)(c2ccc(Cl)cc2)OC1=O` (centres undefined), the TGI in test [1] is 11.7 µM; in test [17], 31.2 µM; in [2], 19.2 µM; in [3] it was 30.5 µM; in test [4], 3.61 µM; in test [5] it was 31.4 µM. Also, the TGI is 7.56 µM in test [6]; 28.1 µM in test [7]; 6.91 µM in [8]; 4.47 µM in test [9]; 4.31 µM in [10]; 22.5 µM in test [11]. Moreover, the TGI in test [12] amounted to 13.4 µM; in test [18], 21.8 µM; in test [13] it was 6.77 µM; in [15] it was 30.9 µM; in test [16], 21 µM.
With `C=C1C(O)C[C@H](OC(C)=O)[C@]2(C)C1C(OC(C)=O)[C@]1(C(C)(C)O)CC(O)C(C)=C1[C@@H](OC(=O)c1ccccc1)C2OC(C)=O` (some centres undefined), the TGI in [1], in test [2], in [3], in test [4], in test [5] and in test [6] was over 10 µM each time. For the same molecule, the TGI in [7], in test [8], in test [9], in test [10], in test [11] and in test [12] was over 10 µM throughout. Moreover, the TGI in test [18], in [13], in [14], in [15] and in test [16] was over 10 µM in each case.
In the case of `Cc1n[nH]c(=O)n1/N=C\c1ccccc1`, the TGI in test [1], in test [17], in test [2], in [3], in [4] and in test [5] was over 100 µM throughout. Moreover, the TGI in [6], in test [7], in test [8], in [9], in test [10] and in test [11] was over 100 µM in each case. For the same molecule, the TGI in test [12] is over 100 µM; in test [18] it was over 100 µM; in test [13], over 100 µM; in test [14], 50.9 µM; in [16], over 100 µM.
On to `Cn1c(CO)ccc1-c1ccc(-c2ccc[se]2)[se]1`, for which the TGI in test [1] is over 100 µM; in [17] it was over 47.7 µM; in test [2] it was over 100 µM; in [4] it was 39.5 µM; in test [5], 60 µM; in test [6], over 52.4 µM. Also, the TGI is 99.5 µM in test [7]; over 100 µM in [8]; 59.7 µM in test [9]; 77.8 µM in test [10]; over 100 µM in [11]; 26.4 µM in test [14]. Besides, the TGI in test [15] turned out to be 37.2 µM; in test [16], 26.2 µM.
In the case of `COC(=O)c1c(O)ccc2[nH]c3c(O)c4ccccc4cc3c12`, the TGI in [1] is over 100 µM; in [17], 32.8 µM; in test [2], over 100 µM; in [3], over 100 µM; in [4] it was 78.4 µM; in test [5], over 100 µM. For the same molecule, the TGI was 56.2 µM in [6]; over 100 µM in test [7]; 48.1 µM in test [8]; over 100 µM in [9]; 55 µM in [11]; over 100 µM in test [12]. Also, the TGI is 31.6 µM in [18], 45.9 µM in test [13], over 100 µM in test [14] and 70.7 µM in test [16].
`Cc1nc(C)c(N2CCNCC2)c(=O)[nH]1`: the TGI in test [1], in [17], in test [2], in test [4], in test [5] and in [6] was over 100 µM in each case. In addition, the TGI in [7], in test [8], in test [9], in test [10], in test [12] and in test [18] was over 100 µM throughout. In addition, the TGI in test [13], in test [14], in [15] and in test [16] was over 100 µM in each case.
For `O=c1oc2ccccc2cc1-c1cn2c(n1)sc1ccccc12`, the TGI in test [1] is over 100 µM; in [17] it was over 100 µM; in test [2], over 100 µM; in test [5], over 100 µM; in test [6] it was 77.4 µM; in test [7], over 100 µM. Besides, the TGI in [8], in test [9], in test [10], in test [11], in test [12] and in test [18] was over 100 µM throughout. Moreover, the TGI in test [13], in test [14], in test [15] and in test [16] was over 100 µM throughout.
For the molecule `CC(=O)NC(C)(C)C1CCC(C)=C(c2ccccc2)C1` (centres undefined), the TGI in [1], in test [17], in test [2], in test [3], in [4] and in test [5] was over 100 µM each time. The TGI in test [6], in test [7], in test [8], in test [9], in test [10] and in test [12] was over 100 µM each time. Moreover, the TGI in [18], in test [15] and in test [16] was over 100 µM throughout.
Turning to `O=C(N=c1ccc2nc(=O)[nH]n(O)c-2c1)C(F)(F)F`, the TGI in [1], in test [2], in [3], in test [4], in test [5] and in test [6] was over 100 µM each time. Also, the TGI in [7], in [8], in test [9], in [10], in test [11] and in [12] was over 100 µM in each case. The TGI in test [18], in [13], in [15] and in [16] was over 100 µM each time.
Regarding `S=c1[nH]n2c(CCCCCCCCc3nnc4sc(=S)[nH]n34)nnc2s1`, the TGI in test [1], in test [17], in [2], in test [3], in [4] and in [5] was over 100 µM throughout. The TGI in test [6], in [7], in [8], in test [9], in test [10] and in test [11] was over 100 µM throughout. Also, the TGI in test [12], in test [18], in test [13], in test [15] and in test [16] was over 100 µM each time.
For `COC(=O)N[C@H](C(=O)O)C(C)O[Si](C)(C)C(C)(C)C` (some centres undefined), the TGI in test [1], in test [17], in test [2], in [3], in [4] and in [5] was over 100 µM in each case. Moreover, the TGI in [6], in [7], in [8], in test [9], in test [10] and in test [12] was over 100 µM in each case. Besides, the TGI in test [18], in [14] and in [16] was over 100 µM each time.
For the molecule `Cc1cc(S(=O)(=O)Nc2nc3ccccc3nc2-c2ccc(Cl)cc2)c(S)cc1Cl`, the TGI was 37.8 µM in test [1]; 29.1 µM in test [17]; 34.3 µM in [2]; 33.8 µM in test [3]; 28.2 µM in test [4]; 54 µM in [5]. The TGI was determined as 34.1 µM in [6]; 56.7 µM in [7]; 42.2 µM in test [8]; 42.2 µM in test [9]; 29.2 µM in [11]; 25.4 µM in test [12]. The TGI in test [18] was 29.9 µM; in test [13], 36.8 µM; in test [14], 46.6 µM; in test [16], 34.5 µM.
